Assay results from PMC7534330, “UHPLC-MS/MS method for pharmacokinetic and bioavailability determination of five bioactive components in raw and various processed products of Polygala tenuifolia in rat plasma” (Pharmaceutical Biology, 2020).
Where two headings read alike, the source gives them in different places.

Legend:
[1] = Pharmacokinetics and absolute bioavailability of five compounds after oral and i.v. administration (UHPLC-MS/MS); format: in vivo; settings: rat; for MRT last: read-out: MRT0-t; for half-life: read-out: t1/2 (converted); for AUCΔ0-t (dose-normalized) / AUCΔ0-∞ (dose-normalized) / CΔmax (dose-normalized): dose-normalized value
Protocol: A Thermo Hypersil Gold C18 column (3.0 × 100 mm, i.d.; 3 μm) was used for chromatographic separation. An aqueous 10 mM ammonium acetate solution (A) and acetonitrile (B) were selected as the mobile phase components. The optimal gradient program involved the following steps: 5% B (0–1 min), changing to 85% B (1–3.5 min), 85% B (3.5–4.0 min), changing to 5% B (4.0–4.1 min) and 5% B (4.1–5.0 min). The flow rate was set to 0.4 mL/min, the autosampler was maintained at 4 °C and the injection volume was 5 μL.
UHPLC-MS/MS was conducted by an Applied Biosystems (AB) Sciex Exion LC system (Foster City, CA) connected to a 6500 + triple quad tandem mass spectrometer with an electrospray ionization source. All detection and quantifications were carried out in positive multiple reaction monitoring (MRM) mode. The optimized parameters were programmed as follows: ion source temperature, 500 °C; curtain gas pressure, 30 kPa; ion source gas 1 pressure, 55 kPa; ion source gas 2 pressure, 55 kPa; and ion spray voltage, […]. The chemical structures and ion mass spectra of targeted compounds are shown in Figure 1. The precursor ion and product ion were m/z 517.1 → 174.9 for A5, m/z 547.0 → 204.9 for A6, m/z 753.2 → 205.2 for DSS, m/z 681.3 → 443.3 for TFSA, m/z 236.8 → 103.2 for TMCA and m/z 136.9 → 92.9 for IS. All data were acquired by using AB Sciex Analyst software (version 1.6.3).
After thawing the frozen blood samples at room temperature, a 100 μL aliquot of plasma was spiked with 50 μL of the IS working solution in 2 mL EP tubes, and 750 μL of methanol was added into each of the tubes. Then, these tubes were mixed on a multi-tube Vortexer for 0.5 min before centrifugation at 11,800×g for 10 min. Finally, 200 μL of the obtained supernatant was transferred to a fresh autosampler vial, and then 5 μL of the sample was injected for analysis.
The SD rats were randomly divided into oral and i.v. groups for A5, A6, DSS, TFSA and TMCA administration (n = 6 in each group). The oral doses of A5, A6, DSS, TFSA and TMCA groups were 7.40, 11.60, 16.00, 50.00 and 3.11 mg/kg, respectively, and the corresponding i.v. doses were 0.74, 1.16, 1.60, 5.00 and 0.31 mg/kg, respectively. Blood samples were collected from the suborbital vein into heparinized tubes before and 0, 0.083, 0.17, 0.25, 0.5, 1, 2, 3, 5 and 8 h after administration. The treatment method of blood samples was the same as that mentioned above.
The elementary pharmacokinetic parameters of plasma samples were analyzed by DAS 2.0 pharmacokinetic software. One-way analysis of variance (ANOVA) was used for statistical comparison for pharmacokinetic and interaction studies. A p-value < 0.05 indicated a significant difference. The main parameters considered were as follows: AUC0–∞ (the area under the blood concentration-time curve from zero to infinity initial plasma concentration), MRT (the mean residence time), Cmax (peak plasma concentration) and Tmax (time to reach Cmax for oral dose), t1/2 (elimination half-life) (He et al. [2015]). The absolute bioavailability (F) was evaluated as follows: F(%)=(AUCoral×Dosei.v.)/(AUCi.v.×Doseoral)×100%

[2] = Stability of the five analytes in rat plasma; format: in vitro ADME; settings: rat plasma, n = 6; for Long-term stability, Mean: 4 weeks at −80 °C; for Short-term stability, Mean: 5 h at room temperature (25 °C); for Auto-sampler stability, Mean: 24 h in the autosampler at 4 °C; for Freeze-thaw stability, Mean: three freeze-thaw cycles from −20 °C to room temperature
Protocol: Stock standards of A5, A6, DSS, TFSA, TMCA and IS were prepared in methanol at a concentration of 1 mg/mL. A series of working standard solutions of the targeted compounds ranging from 10 to 20,000 ng/mL and the IS solution at 600 ng/mL were prepared by diluting the stock solutions with methanol and maintained at −20 °C. Calibration standards were freshly prepared by spiking the series of standard solutions (30 μL) including the IS into blank rat plasma (270 μL) to achieve concentrations of 1, 10, 50, 100, 500, 1000, 1600 and 2000 ng/mL. Quality control (QC) samples were prepared independently at low (2 ng/mL), medium (600 ng/mL) and high (1600 ng/mL) concentrations following the same method for the five compounds.
Stability studies included short-term stability (5 h at room temperature, i.e. 25 °C), freeze-thaw stability (three consecutive freeze-thaw cycles from −20 °C to room temperature), autosampler stability (24 h storage in the autosampler at 4 °C) and long-term stability (4 weeks storage at −80 °C). The stability data of all analytes are presented in Supplementary Table S4.

[3] = SD, in vivo, iv, i.v. administration, A5 0.74, A6 1.16, DSS 1.60, TFSA 5.00, TMCA 0.31 mg/kg, n = 6
[4] = SD, in vivo, oral administration of pure compound, A5 7.40, A6 11.60, DSS 16.00, TFSA 50.00, TMCA 3.11 mg/kg, n = 6

COc1cc(C=CC(=O)O)cc(OC)c1OC [TMCA, 3,4,5-trimethoxycinnamic acid]
AUC(0-inf) [1, 3]: 226 ± 61.2 ng·h/mL
AUC(0-t) [1, 3]: 225 ± 60.9 ng·h/mL
Cmax [1, 3]: 1470 ± 238 ng/mL
MRT last [1, 3]: 15 ± 3.6 min
half-life [1, 3]: 37.2 ± 7.8 min
AUC(0-inf) [1, 4]: 971 ± 59.8 ng·h/mL
AUC(0-t) [1, 4]: 968 ± 58.4 ng·h/mL
Cmax [1, 4]: 1110 ± 90.5 ng/mL
MRT last [1, 4]: 40.8 ± 1.8 min
Tmax ([1]; SD, in vivo, oral administration of pure compound, A5 7.40, A6 11.60, DSS 16.00, TFSA 50.00, TMCA 3.11 mg/kg, n = 6, read-out: Tmax): 15 min
half-life [1, 4]: 39 ± 1.2 min
AUCΔ0-t (dose-normalized) ([1]; i.v. administration): 725.52 ± 196.42 ng·h/mL
AUCΔ0-∞ (dose-normalized) ([1]; i.v. administration): 730.65 ± 197.45 ng·h/mL
CΔmax (dose-normalized) ([1]; i.v. administration): 4750.32 ± 768.32 ng/mL
AUCΔ0-t (dose-normalized) ([1]; oral administration): 311.40 ± 18.78 ng·h/mL
AUCΔ0-∞ (dose-normalized) ([1]; oral administration): 312.32 ± 19.23 ng·h/mL
CΔmax (dose-normalized) ([1]; oral administration): 356.33 ± 29.10 ng/mL
F, absolute bioavailability ([1]; oral vs i.v. (i.v. dose 1/10 of oral dose)): 42.91 % of dose
Long-term stability, Mean ([2]; 2 ng/mL): 98.3%
Short-term stability, Mean ([2]; 2 ng/mL): 96.2%
Auto-sampler stability, Mean ([2]; 2 ng/mL): 96.3%
Freeze-thaw stability, Mean ([2]; 2 ng/mL): 95.3%
Long-term stability, Mean ([2]; 600 ng/mL): 95.5%
Short-term stability, Mean ([2]; 600 ng/mL): 98.3%
Auto-sampler stability, Mean ([2]; 600 ng/mL): 99.8%
Freeze-thaw stability, Mean ([2]; 600 ng/mL): 97.3%
Long-term stability, Mean ([2]; 1600 ng/mL): 95.8%
Short-term stability, Mean ([2]; 1600 ng/mL): 102.5%
Auto-sampler stability, Mean ([2]; 1600 ng/mL): 99.5%
Freeze-thaw stability, Mean ([2]; 1600 ng/mL): 98.8%
